Reference: ChEMBL document CHEMBL1156253 (Eur J Med Chem, 2010)

Target: T1, Peroxisome proliferator-activated receptor gamma (Homo sapiens, UniProt P37231)
T1 sequence (P37231 whole entry): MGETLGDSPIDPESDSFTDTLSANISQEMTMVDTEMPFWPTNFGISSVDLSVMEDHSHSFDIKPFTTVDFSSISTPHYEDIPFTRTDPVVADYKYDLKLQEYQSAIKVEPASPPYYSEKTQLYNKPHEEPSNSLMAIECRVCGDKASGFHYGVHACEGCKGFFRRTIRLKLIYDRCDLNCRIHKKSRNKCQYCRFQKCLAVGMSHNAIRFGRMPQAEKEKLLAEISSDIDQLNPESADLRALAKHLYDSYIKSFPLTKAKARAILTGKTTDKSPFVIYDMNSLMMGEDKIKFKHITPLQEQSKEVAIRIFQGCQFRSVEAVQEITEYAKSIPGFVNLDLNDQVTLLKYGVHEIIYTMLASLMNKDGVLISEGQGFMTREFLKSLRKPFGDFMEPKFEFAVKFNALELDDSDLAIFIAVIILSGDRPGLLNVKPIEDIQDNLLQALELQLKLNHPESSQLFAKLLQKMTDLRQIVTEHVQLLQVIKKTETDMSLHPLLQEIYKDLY
Experiment: Agonist activity at N-terminal His-tagged human PPARgamma ligand binding domain by fluorescence polarization assay

| Structure (SMILES) | IC50 [nM] |
| --- | --- |
| O=C(O)CCN1C(=O)/C(=C\c2ccc(Cl)cc2Cl)SC1=S | 876 |
| Cc1ccc(COc2ccccc2/C=C2/SC(=S)N(CCC(=O)O)C2=O)cc1 | 1320 |
